From patent US5786460A (Cheil Foods & Chemicals, Inc., priority 1993, dated 1998)
Values after ≈ are worked out from the molar mass of the structure shown.

Tests used:
Test in all cases: in vitro antifungal activity, twofold agar dilution method
Assay type in all cases: cell-based
Cryptococcus neoformans = conditions: KCTC1197, KCTC No 1197, potato dextrose agar
Description: (§1) The activities were determined by the twofold agar dilution method on potato dextrose agar medium.

Rhizopus stolonifer = conditions: KCTC6062, KCTC No 6062, potato dextrose agar
Description: as §1

Microsporum canis = conditions: KCTC11621, KCTC No 11621, potato dextrose agar
Description: as §1

Candida albicans [1] = conditions: KCTC1940, KCTC No 1940, potato dextrose agar
Description: as §1

Epidennophyton floccosum = tested on: Epidennophyton floccosum
Description: as §1

[2] = tested on: Trichophyton mentagrophyte; conditions: KCTC6085, KCTC No 6085, potato dextrose agar
Description: as §1

Aspergillus niger = conditions: KCTC2119, KCTC No 2119, potato dextrose agar
Description: as §1

Trichophyton rubrum = conditions: KCTC38484, KCTC No 38484, potato dextrose agar
Description: as §1

Fusarium oxysporum = conditions: KCTC6084, KCTC No 6084, potato dextrose agar
Description: as §1

Microsporum gypseum = conditions: Nannizzia gypsea, KCTC1252; KCTC No 1252; potato dextrose agar
Description: as §1

Candida glabrata = conditions: Nakaseomyces glabratus, KCTC1714; KCTC No 1714; potato dextrose agar
Description: as §1

Candida albicans [3] = conditions: KCTC38245
Description: as §1

Saccharomyces cerevisiae = conditions: KCTC1213, KCTC No 1213, potato dextrose agar
Description: as §1

## C[C@@H]1[C@H](O)[C@@H](C)/C=C/C=C/C=C/C=C/C=C/C=C/C=C/[C@H](O[C@@H]2O[C@H](C)[C@@H](O)[C@H](N)[C@@H]2O)C[C@@H]2O[C@](O)(C[C@@H](O)C[C@@H](O)[C@H](O)CC[C@@H](O)C[C@@H](O)CC(=O)O[C@H]1C)C[C@H](O)[C@H]2C(=O)O [Amphotericin-B]
Cryptococcus neoformans
  MIC: 0.098 µg/mL (≈ 0.106 µM)
Rhizopus stolonifer
  MIC: 0.391 µg/mL (≈ 0.423 µM)
Microsporum canis
  MIC: 0.391 µg/mL (≈ 0.423 µM)
Candida albicans [1]
  MIC: 0.782 µg/mL (≈ 0.846 µM)
Epidennophyton floccosum
  MIC: 3.12 µg/mL (≈ 3.38 µM)
[2]
  MIC: 3.12 µg/mL (≈ 3.38 µM)
Aspergillus niger
  MIC: 0.196 µg/mL (≈ 0.212 µM)
Trichophyton rubrum
  MIC: 0.782 µg/mL (≈ 0.846 µM)
Fusarium oxysporum
  MIC: 0.196 µg/mL (≈ 0.212 µM)
Microsporum gypseum
  MIC: 0.196 µg/mL (≈ 0.212 µM)
Candida glabrata
  MIC: 0.196 µg/mL (≈ 0.212 µM)
Candida albicans [3]
  MIC: 0.782 µg/mL (≈ 0.846 µM)
Saccharomyces cerevisiae
  MIC: 0.098 µg/mL (≈ 0.106 µM)
